Legend:
[1] = Stability of 177Lu-labelled mini-gastrin analogues in human serum, metabolites by HPLC; type: in vitro ADME; conditions: compared to PP-F11, PP-F10N and PP-F10
Procedure: 12 MBq of the radiolabelled compound was incubated in 2 mL fresh human plasma. A 40 μL probe was taken after 0, 1, 2, 18, 24, 48 and 72 h and added 200 μL (50% Methanol and 50% Acetonitril) in a Mini-UniPrep Filter. The solution is filtered after vortexing. 40 μL of the filtered solution is analyzed by HPLC.

[2] = tested on: human CCK-2 receptor transfected A431 cells; experiment: Biodistribution of 177Lu-labelled mini-gastrin analogues in tumour-bearing CD1 nu/nu mice; type: in vivo; conditions: 4 hours after injection
Procedure: PP-F11N has been investigated according to the CD1 nu/nu mice model. […] FIG. 2 illustrates the biodistribution of PP-F11, PP-F11N and oxidized PP-F11 ox (oxidized PP-F11) after 4 hours in the athymic CD1 nu/nu mice model. Tumour positive: with human CCK-2 receptor transfected A431 cells on one side of the mouse; tumor negative: CCK-2 receptor negative A431 cells on the other side of the mouse. The effect of the higher tumor uptake by the exchange of methionine with norleucine is specifically apparent with compounds having the DGlu6 sequence, different from compounds having a sequence with DGLn6 which is referred to as PP-F10.
CD1 nu/nu mice were injected with 5×10^6 A431 cells. CCK-2 receptor positive A431 cells' were injected into one flank and mock cells on the other as an unspecific control. The tumors reach a weight of about 80 to 120 mg after about 10 days. 150-200 kBq (5 pmol) of the radiolabelled peptides were injected into the tail vein. Mice were killed by CO2 asphyxiation after defined time points post injection. The organs were dissected, weighted and the activity was measured. The % injected activity per gram (% i.A./g) was calculated. The animal experiments were approved by the local animal welfare committee and performed according to national regulations.

For CCCC[C@H](NC(=O)[C@H](Cc1c[nH]c2ccccc12)NC(=O)CNC(=O)[C@H](Cc1ccc(O)cc1)NC(=O)[C@H](C)NC(=O)[C@@H](CCC(=O)O)NC(=O)[C@@H](CCC(=O)O)NC(=O)[C@@H](CCC(=O)O)NC(=O)[C@@H](CCC(=O)O)NC(=O)[C@@H](CCC(=O)O)NC(=O)[C@@H](CCC(=O)O)NC(=O)CN1CCN(CC(=O)O)CCN(CC(=O)O)CCN(CC(=O)O)CC1)C(=O)N[C@@H](CC(=O)O)C(=O)N[C@@H](Cc1ccccc1)C(N)=O [PP-F11N], the pharmacologic stability [1] was “highest pharmacologic stability of all probands” and the “accumulation in the kidneys” value [2] was “very few accumulation in the kidneys”.

Reference: patent US10130724B2, “Mini-gastrin analogue, in particular for use in CCK2 receptor positive tumour diagnosis and/or treatment” (PAUL SCHERRER INSTITUT, priority 2013, dated 2018)
